# Measurements reported in patent US10716783B2, “Prolylhydroxylase/ATF4 inhibitors and methods of use for treating neural cell injury or death and conditions resulting therefrom” (CORNELL UNIVERSITY, priority 2013, dated 2020).
# Entries after “also recorded” stand apart in the source; their conditions may differ.
# How the values were obtained:
# ATF4 [1] = assay: ATF4 hydroxylation (ATF4 immunoprecipitation, hydroxyproline immunoblot); format: cell-based
# [2] = tested on: immortalized hippocampal neuroblasts (HT22 cells); assay: Hemin-induced toxicity in hippocampal neuroblasts (MTT); format: cell-based
# From the text: FIGS. 1A-1L: Structurally diverse HIF PHD inhibitors stabilize HIF-1 and abrogate toxicity induced by hemin, a byproduct of blood breakdown, in cortical neurons hippocampal neuroblasts and striatal neuroblasts (not shown).
# Secondary injury from ICH has been attributed to hemin, a breakdown product of hemoglobin (from lysed red blood cells). To investigate the mechanisms of hemin toxicity to neurons in vitro, this experiment exposed primary cortical neurons, immortalized hippocampal neuroblasts (HT22 cells), and immortalized striatal neuroblasts (Q7 cells) to hemin for 24 hours. As expected, a dose dependent loss in viability as measured by MTT reduction or LIVE/DEAD assay in all three cell types was observed. […] To examine whether iron-dependent HIF PHD enzymes can be modulated to protect neurons from hemin-induced toxicity, this experiment examined structurally diverse inhibitors of the HIF PHDs: desferoxamine, cyclopirox, and dihydroxybenzoic acid. […] To test this notion further using a chemical biological approach, the protective effects of cyclopirox, a HIF PHD inhibitor, and a cyclopirox analog with no PHD inhibitory activity but with similar metal binding affinity to cyclopirox were compared. As expected, only the cyclopirox analog with PHD inhibitory activity was neuroprotective. […]
# primary neurons = assay: Death induced by forced ATF4 expression in primary neurons (MTT, LIVE/DEAD); format: cell-based; conditions: concentrations protective in the oxidative stress model
# From the text: (§1) FIGS. 6A-6I. […] Expression of ATF4 was forced into primary neurons, which induces death of these neurons by MTT assay (FIG. 6D) or LIVE/DEAD staining, Green is live, Red is dead (FIG. 6E).
# primary cortical neurons = assay: Oxidative glutamate (homocysteate) toxicity in cortical neurons; format: cell-based, rat
# From the text: (§2) FIGS. 5A-5G. […] Because adaptoquin is a HIF PHD inhibitor that appears to work independent of HIF transcription factors, and because hemin induced death involves oxidative stress, the effect of adaptoquin on oxidative glutamate toxicity was examined. This form of toxicity is observed in primary cortical neurons from E17 rat embryos (2 DIV) and involves glutamate mediated inhibition of the amino acid cystine via its plasma membrane transporter. […] Accordingly, the optimal concentration of adaptoquin in protecting neurons was first determined and found to be about 1 micromolar. […] To determine the mechanism of adaptoquin, transcriptomic experiments were performed using non-protective and protective concentrations of drug harvesting RNA just prior to the time the cell's becoming insensitive to adaptoquin (16 hrs), as provided in FIG. 5C.
# (§3) To probe the mechanism of adaptoquin-induced neuroprotection, the study moved its attention to a well established model of oxidative stress in neurons induced by glutamate. Like hemin induced toxicity, oxidative glutamate toxicity is abrogated by forced expression of GPX4 (Alim et al., unpublished observations). However, oxidative glutamate toxicity has a much longer window before cells are committed to die (eighteen hours), facilitating analysis of primary events involved in cell death and protection. A detailed dose response and therapeutic window study was performed with adaptoquin in mouse cortical neurons exposed to glutamate or the glutamate analog, homocysteate. […] To probe the mechanism of this potent, delayed protection, a microarray transcriptomics study was performed using RNA from neuronal cultures that had been exposed to glutamate (or HCA) for 16 hours with vehicle, as well as non-protective (100 nM) and protective doses of adaptoquin (1 μM). Protective, but not protective doses of adaptoquin reduced expression of a host of genes induced by oxidative stress including Tribbles homolog 3, methylene tetrahydrofolate reductase, the Xc-transporter, and stanniocalcin-2 hormone glycoprotein.
# HIF-1 protein = HIF-1 protein stabilisation in primary neurons (Western blot); format: cell-based; conditions: FIG. 6H, 6I
# From the text: FIGS. 1A-1L: Structurally diverse HIF PHD inhibitors stabilize HIF-1 and abrogate toxicity induced by hemin, a byproduct of blood breakdown, in cortical neurons hippocampal neuroblasts and striatal neuroblasts (not shown). […] FIGS. 6A-6I. […] Expression of ATF4 was forced into primary neurons, which induces death of these neurons by MTT assay (FIG. 6D) or LIVE/DEAD staining, Green is live, Red is dead (FIG. 6E).
# [3] = tested on: intracerebral hemorrhage (collagenase into the striatum); assay: Collagenase-induced ICH in mice; format: in vivo; conditions: for Corner task (spatial neglect): 30 mg/kg i.p. 2 h post collagenase then daily for seven days; for Tape removal task (sensory neglect): 1 and 3 days post ICH; for Neuronal degeneration (Fluoro-jade staining), striatum hematoma and perihematomal area: day 7
# Procedure: FIGS. 4A-4N. Adaptoquin delivered post-injury reduces cell death and enhances functional recovery post injury in mice and rats. Adaptoquin's effects in mice are not associated with global shifts of iron out of the brain. FIG. 4A: Experimental design for schedule of delivery of adaptaquin post-ICH. 30 mg/kg was delivered post-injury and then daily for seven days during which behavioral analysis was done. Mice were sacrificed at day 7 for qPCR and Fluoro-jade staining. […] FIG. 4J: Protocol for adaptoquin treatment of rats with ICH. ICH is modeled by autologous blood infusion and not collagenase in these studies. Behavior is tracked by a single pellet reaching task out to 28 days, but the schedule of infusion is similar to what is used in mice-2 hrs post blood infusion and then daily out to seven days. Behavior is monitored before, from 9-11 days and from 25-28 days. […] FIG. 4L: Protocol for evaluating the total concentrations of iron and zinc in brain following ICH in vehicle and adaptoquin treated mice. FIGS. 4M, 4N: Pseudocolored sections of collagenase induced ICH in mice after 7 days. […] These studies are consistent with the notion that adaptoquin works by inhibiting a specific metalloenzyme rather than global movement of metal ions. To determine whether HIF PHD inhibition after ICH can improve behavioral outcomes, 30 mg/kg of adaptoquin was delivered to the peritoneum of mice two hours following the injection of collagenase into the striatum. An identical dose of adaptoquin (30 mg/kg) was given daily for seven days. […] These molecular deletion and pharmacological inhibition studies supported HIF PHDs as targets for therapy post ICH, but left unanswered the mechanism by which adaptoquin could abrogate neuronal death. A first prediction of the model was that adaptoquin enhances functional recovery without affecting total brain iron levels. Total iron levels were monitored in brain sections from vehicle- and adaptoquin-treated (30 mg/kg) mice seven days following ICH.
# ATF4 [4] = assay: ATF4 dependent gene expression under oxidative stress in neurons (microarray, qPCR, promoter occupancy); format: cell-based
# From the text: as §2, §1
# as §3, with “Protective, but not protective doses of adaptoquin reduced expression of a host of genes induced by oxidative stress including Tribbles homolog 3, methylene tetrahydrofolate reductase, the Xc-transporter, and stanniocalcin-2 hormone glycoprotein.” left out
structure (smiles),measurement,setting,value
Oc1cccnc1NC(c1ccc(Cl)cc1)c1ccc2cccnc2c1O (stereo not drawn) [adaptoquin],ATF4 hydroxylation,ATF4 [1],inhibits ATF4 hydroxylation
same,Hemin-induced death / protection after HIF-1α or HIF-2α reduction (shRNA),[2],prevents hemin induced death independent of HIF-1 and HIF-2
same,Death induced by oxidative stress and ATF4 forced expression,primary neurons,mitigates death induced by oxidative stress and ATF4 forced expression
same,Protection against oxidative death,primary cortical neurons; 0.1 micromolar (100 nM),non-protective
same,Protection against oxidative death,primary cortical neurons; 1 micromolar,complete protection
same,Time after glutamate/homocysteate treatment at which the compound can still be added and protect,primary cortical neurons; 1 micromolar,up to 16 hours
same,Protection against oxidative death,"primary cortical neurons; 1 micromolar, listed as adaptaquin",protection is significant
same,Optimal concentration in protecting neurons,primary cortical neurons; oxidative glutamate toxicity,about 1 micromolar
same,HIF-1 stabilisation relative to protective concentration,HIF-1 protein,stabilizes HIF-1 at concentrations higher than that required for full protection
same,Corner task (spatial neglect),[3],significantly normalized
same,Corner task (spatial neglect),[3]; listed as Adaptoquin,corrects behavioral deficits
same,Tape removal task (sensory neglect),[3]; 30 mg/kg i.p.,significant improvement
same,Tape removal task (sensory neglect),"[3]; 30 mg/kg i.p., listed as Adaptoquin",corrects behavioral deficits
same,Hematoma size,"[3]; 30 mg/kg i.p., at 24 hours",no difference
same,Edema,"[3]; 30 mg/kg i.p., at three days",did decrease edema
same,"Neuronal degeneration (Fluoro-jade staining), striatum hematoma and perihematomal area",[3]; 30 mg/kg i.p.,reduction in the number of degenerating neurons
same,"Neuronal degeneration (Fluoro-jade staining), striatum hematoma and perihematomal area","[3]; 30 mg/kg i.p., listed as Apatoquin",significantly reduces neuronal degeneration
same,p21 expression,"[3]; 30 mg/kg post-ICH then daily for seven days, qPCR day 7",induced p21 expression
same,Oxidative stress and ATF4 dependent induction of Trb3,ATF4 [4]; 1 micromolar,abrogates oxidative stress and ATF4 dependent induction of Trb3
same,ATF4 occupancy at the promoter of Trib3,ATF4 [4]; oxidative stress,abrogates oxidative stress induced ATF4 occupancy
same,"Expression of ATF4 dependent genes (Trib3, MTHFR2, SCL7A11, STC2)","ATF4 [4]; protective doses (1 μM), quantitative PCR / microarray",significantly reduces expression of ATF4 dependent genes; also recorded: downregulation of ATF4 dependent genes
